Results as given in patent publication US20240398812A1 (Caraway Therapeutics, Inc., priority 2021, published 2024).

What was measured:
Type in all cases: cell-based
TRPML2 = target: T1, TRPML2 (Homo sapiens, UniProt Q8IZK6); assay: Fluorescent TRPML2 assay (as for TRPML1)
T1 construct: expressed in transfected cells
T1 sequence (Q8IZK6 1-566): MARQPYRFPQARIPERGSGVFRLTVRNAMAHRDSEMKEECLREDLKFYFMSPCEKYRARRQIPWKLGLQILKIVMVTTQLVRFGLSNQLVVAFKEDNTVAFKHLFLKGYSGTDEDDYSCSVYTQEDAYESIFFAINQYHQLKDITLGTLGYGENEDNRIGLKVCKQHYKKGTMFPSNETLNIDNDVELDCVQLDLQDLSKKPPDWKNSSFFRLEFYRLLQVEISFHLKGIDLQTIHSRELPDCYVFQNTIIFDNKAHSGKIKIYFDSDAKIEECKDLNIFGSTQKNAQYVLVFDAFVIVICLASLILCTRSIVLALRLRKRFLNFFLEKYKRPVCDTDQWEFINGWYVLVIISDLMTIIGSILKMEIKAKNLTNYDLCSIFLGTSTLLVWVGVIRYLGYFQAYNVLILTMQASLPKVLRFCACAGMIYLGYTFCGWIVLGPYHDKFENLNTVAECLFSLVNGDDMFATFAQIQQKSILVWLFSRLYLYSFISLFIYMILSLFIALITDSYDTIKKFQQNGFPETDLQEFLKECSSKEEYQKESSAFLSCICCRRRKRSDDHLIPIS
Outline: (§1)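 HEK-293 Trex cells with tet-inducible (0.5 ug/mL doxycycline, overnight) surface-targeted mutant channel, Fluo4-AM loaded, suspended in Ringer's with 10 mM calcium. Compounds tested 20 µM to 6 nM final, half-log steps, triplicate; fluorescence at ex 480/em 540 nm. EC50 by non-linear regression of percent activity versus plate controls.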

TRPML3 = target: T2, TRPML3 (Homo sapiens, UniProt Q8TDD5); assay: Fluorescent TRPML3 assay (as for TRPML1)
T2 construct: expressed in transfected cells
T2 sequence (Q8TDD5 1-553): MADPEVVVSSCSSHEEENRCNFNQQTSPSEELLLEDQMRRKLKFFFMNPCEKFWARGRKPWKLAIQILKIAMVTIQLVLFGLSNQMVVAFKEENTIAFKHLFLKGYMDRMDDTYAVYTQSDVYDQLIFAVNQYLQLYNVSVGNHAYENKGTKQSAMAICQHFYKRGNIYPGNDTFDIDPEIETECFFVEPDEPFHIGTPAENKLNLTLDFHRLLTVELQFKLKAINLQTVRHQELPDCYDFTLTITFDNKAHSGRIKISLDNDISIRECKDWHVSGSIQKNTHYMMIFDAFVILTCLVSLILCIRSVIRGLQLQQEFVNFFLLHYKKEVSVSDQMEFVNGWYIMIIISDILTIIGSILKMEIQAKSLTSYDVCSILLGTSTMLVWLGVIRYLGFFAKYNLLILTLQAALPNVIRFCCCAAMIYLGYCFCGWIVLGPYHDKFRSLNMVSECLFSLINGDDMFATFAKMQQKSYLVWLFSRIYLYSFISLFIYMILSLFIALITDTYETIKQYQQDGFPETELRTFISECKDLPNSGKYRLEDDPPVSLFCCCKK
Outline: as §1

human TRPML1 = human TRPML1 (Homo sapiens, UniProt Q9GZU1); assay: Fluorescent TRPML1 assay (Fluo4-AM calcium fluorescence, HEK-293 Trex cells)
Sequence of human TRPML1 (Q9GZU1 whole entry L15A/L16A/L577A/L578A, form open): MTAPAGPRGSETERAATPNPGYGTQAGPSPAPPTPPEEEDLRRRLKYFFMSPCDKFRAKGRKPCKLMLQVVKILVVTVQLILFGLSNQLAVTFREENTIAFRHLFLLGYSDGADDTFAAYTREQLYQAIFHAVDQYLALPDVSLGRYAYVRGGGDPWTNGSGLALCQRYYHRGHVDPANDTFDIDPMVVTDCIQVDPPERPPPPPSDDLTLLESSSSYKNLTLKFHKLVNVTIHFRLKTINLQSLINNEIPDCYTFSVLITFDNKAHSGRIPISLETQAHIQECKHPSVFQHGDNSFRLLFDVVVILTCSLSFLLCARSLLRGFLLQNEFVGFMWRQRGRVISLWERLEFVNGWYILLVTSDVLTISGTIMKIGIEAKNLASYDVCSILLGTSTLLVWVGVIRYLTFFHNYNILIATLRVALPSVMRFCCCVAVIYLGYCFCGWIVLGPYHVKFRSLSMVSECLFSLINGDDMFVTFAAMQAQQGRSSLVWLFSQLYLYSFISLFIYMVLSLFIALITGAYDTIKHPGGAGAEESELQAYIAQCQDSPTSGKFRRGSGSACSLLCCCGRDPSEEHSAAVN
Outline: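 Tet-inducible HEK-293 Trex cells stably expressing surface-targeted mutant human TRPML1, induced with 0.5 ug/mL doxycycline overnight, loaded with Fluo4-AM and suspended in Ringer's with 10 mM calcium. Compounds tested from 20 μM to 6 nM final, half-log steps, in triplicate; fluorescence (ex 480/em 540) normalised to plate controls, EC50 by non-linear regression.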

SMILES	EC50 (TRPML2; Table 3, compounds 201-283) [nM]	EC50 (TRPML3; Table 3, compounds 201-283) [nM]	EC50 (human TRPML1; Table 3, compounds 201-283) [nM]	EC50 (TRPML2; Table 3, compounds 101-177) [nM]	EC50 (TRPML3; Table 3, compounds 101-177) [nM]	EC50 (human TRPML1; Table 3, compounds 101-177) [nM]
C[C@@H]1CN(c2ncnc3c2c(-c2ccccc2F)cn3-c2cc(F)ccn2)[C@@H](C)CN1C(=O)C1(F)CC1 [Compound 247, (1-fluorocyclopropyl)((2R,5S)-4-(5-(2-fluorophenyl)-7-(4-fluoropyridin-2-yl)-7H-pyrrolo[2,3-d]pyrimidin-4-yl)-2,5-dimethylpiperazin-1-yl)methanone]	500 to 2000	500 to 2000	< 100	–	–	–
CC(C)C(=O)N1CCN(c2ncnc3c2c(-c2ccccc2F)cn3-c2cc(C#N)ccn2)[C@@H](C)C1 [Compound 102, (S)-2-(5-(2-fluorophenyl)-4-(4-isobutyryl-2-methylpiperazin-1-yl)-7H-pyrrolo[2,3-d]pyrimidin-7-yl)isonicotinonitrile]	–	–	–	100 to 500	< 100	< 100
C[C@@H]1CN(c2ncnc3c2c(C2CCC2)cn3-c2cccc(Cl)c2)[C@@H](C)CN1C(=O)C(C)(C)C [Compound 253, 1-((2R,5S)-4-(7-(3-chlorophenyl)-5-cyclobutyl-7H-pyrrolo[2,3-d]pyrimidin-4-yl)-2,5-dimethylpiperazin-1-yl)-2,2-dimethylpropan-1-one]	500 to 2000	100 to 500	< 100	–	–	–
COC(C)(C)C(=O)N1C[C@H](C)N(c2ncnc3c2c(C2CC2)cn3-c2cccc(F)c2)C[C@H]1C [Compound 246, 1-((2R,5S)-4-(5-cyclopropyl-7-(3-fluorophenyl)-7H-pyrrolo[2,3-d]pyrimidin-4-yl)-2,5-dimethylpiperazin-1-yl)-2-methoxy-2-methylpropan-1-one]	500 to 2000	100 to 500	100 to 500	–	–	–
CC(C)C(=O)N1CCN(c2ncnc3c2c(-c2ccccc2F)cn3-c2cc(C#N)n(C)n2)[C@@H](C)C1 [Compound 146, (S)-3-(5-(2-fluorophenyl)-4-(4-isobutyryl-2-methylpiperazin-1-yl)-7H-pyrrolo[2,3-d]pyrimidin-7-yl)-1-methyl-1H-pyrazole-5-carbonitrile]	–	–	–	500 to 2000	100 to 500	100 to 500

Other lines, results leading:

EC50 (TRPML2; Table 3, compounds 201-283) [nM]	EC50 (TRPML3; Table 3, compounds 201-283) [nM]	EC50 (human TRPML1; Table 3, compounds 201-283) [nM]	EC50 (TRPML2; Table 3, compounds 101-177) [nM]	EC50 (TRPML3; Table 3, compounds 101-177) [nM]	EC50 (human TRPML1; Table 3, compounds 101-177) [nM]	SMILES
–	–	–	< 100	< 100	< 100	C[C@H]1CN(C(=O)C2(C)CC2)CCN1c1ncnc2c1c(-c1ccccc1)cn2-c1cc(C#N)ccn1 [Compound 128, (S)-2-(4-(2-methyl-4-(1-methylcyclopropane-1-carbonyl)piperazin-1-yl)-5-phenyl-7H-pyrrolo[2,3-d]pyrimidin-7-yl)isonicotinonitrile]
–	–	–	100 to 500	< 100	< 100	C[C@H]1CN(C(=O)CC(C)(C)C(F)(F)F)CCN1c1ncnc2c1c(C1CC1)cn2-c1cc(C#N)ccn1 [Compound 141, (S)-2-(5-cyclopropyl-4-(2-methyl-4-(4,4,4-trifluoro-3,3-dimethylbutanoyl)piperazin-1-yl)-7H-pyrrolo[2,3-d]pyrimidin-7-yl)isonicotinonitrile]
–	–	–	100 to 500	< 100	< 100	CCCN(CC)c1cn(-c2cc(C#N)ccn2)c2ncnc(N3CCN(C(=O)CC(C)(C)C)C[C@@H]3C)c12 [Compound 166, (S)-2-(4-(4-(3,3-dimethylbutanoyl)-2-methylpiperazin-1-yl)-5-(ethyl(propyl)amino)-7H-pyrrolo [2,3-d]pyrimidin-7-yl)isonicotinonitrile]
< 100	< 100	< 100	–	–	–	C[C@@H]1CN(c2ncnc3c2c(C(F)(F)F)cn3-c2cc(C#N)ccn2)[C@@H](C)CN1C(=O)CC(C)(C)C [Compound 209, 2-(4-((2S,5R)-4-(3,3-dimethylbutanoyl)-2,5-dimethylpiperazin-1-yl)-5-(trifluoromethyl)-7H-pyrrolo[2,3-d]pyrimidin-7-yl)isonicotinonitrile]
–	–	–	500 to 2000	< 100	< 100	C[C@@H]1CN(c2ncnc3c2c(C2CC2)cn3-c2cc(C#N)ccn2)[C@@H](C)CN1C(=O)CC(C)(C)C [Compound 153, 2-(5-cyclopropyl-4-((2S,5R)-4-(3,3-dimethylbutanoyl)-2,5-dimethylpiperazin-1-yl)-7H-pyrrolo[2,3-d]pyrimidin-7-yl)isonicotinonitrile]
